The values below are quoted from earlier work in patent US7842720B2, “Anticancer and antiprotozoal dihydroartemisinene and dihydroartemisitene dimers with desirable chemical functionalities” (Elsohly Laboratories, Incorporated, priority 2004, dated 2010).

In series [1] the test system is chloroquine-sensitive and chloroquine-resistant strains of Plasmodium falciparum.
The test system of the next series is malaria. To be noted: comparison among artemisinin derivatives.

Each structure is given as a SMILES string.

In the case of `C[C@@H]1CC[C@H]2[C@@H](C)C(=O)O[C@@H]3O[C@@]4(C)CC[C@@H]1[C@]32OO4` [artemisinin], the anti-malarial activity result in series [1] is listed as “anti-malarial activity”.
Take `C[C@H]1[C@H](OC(=O)CCC(=O)[O-])O[C@@H]2O[C@@]3(C)CC[C@H]4[C@H](C)CC[C@@H]1[C@@]24OO3.[Na+]` [sodium artesunate]: the “anti-malarial activity relative to comparator” value in the series with malaria is “more activity”.
